Data: patent publication US9357777B2, “Method for effective management of helicoverpa armigera” (priority 2012, dated 2016)
Bridges are numbered along the chain shown (N, C = ends). Where no end group is shown, it is not given here.

Target: T1, bovine trypsin (Bos taurus, UniProt P00760)
T1 construct: purchased Sigma-Aldrich
T1 sequence (P00760 24-246): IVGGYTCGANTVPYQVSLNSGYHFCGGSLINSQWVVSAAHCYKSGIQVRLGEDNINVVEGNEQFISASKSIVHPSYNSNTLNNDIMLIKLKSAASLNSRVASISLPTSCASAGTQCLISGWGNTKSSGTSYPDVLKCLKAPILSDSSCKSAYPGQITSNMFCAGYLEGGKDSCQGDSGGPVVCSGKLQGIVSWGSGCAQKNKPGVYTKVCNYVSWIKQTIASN
Experiment: Inhibition kinetics with bovine trypsin (BApNA substrate)
Assay type: biochemical
Description: Michaelis-Menten constant (Km) for trypsin was calculated by using various concentrations of BApNA substrate (1 to 5 mM), and then plotting double reciprocal curve with 1/(v) and 1/[S]. The kinetic properties of IRDs were analysed over a range of concentration of inhibitors (1 μM to 1 mM). IC50 values for each inhibitor were calculated from the sigmoid curve indicating the best fit for the percentage inhibition data obtained. The values of Ki values for each inhibitor were calculated directly from IC50 values using Cheng-Prusoff's classical equation (Copeland et al., 1995).

QPICTNSSAGLKGCNYYNADGTFICEGESDPNHPKACPKNCDPNIAYSLC (disulfide 4-41, 14-50; cysteines drawn unpaired) [IRD-9]
Ki (calculated from IC50 by Cheng-Prusoff's equation, read-out: Inhibition constant (Ki)): ~2200 nM
IC50 (substrate BApNA 1 mM, FIG. 2C): ~2200 nM
